Results published in ChEMBL document CHEMBL5614416, “Discovery of novel thiophene[3,2-d]pyrimidine-based tubulin inhibitors with enhanced antitumor efficacy for combined use with anti-pd-l1 immunotherapy in melanoma” (Eur J Med Chem, 2024).
Activity calls are given as the source filed them. The calls are words filed in the database; no cut-off is given here.

Experiments:
[1] = system: HCT-116; assay: Antiproliferative activity against human HCT-116 cells incubated for 48 hrs by MTT assay; type: functional, cell-based; details: HCT-116, 48 h
[2] = system: HeLa; assay: Antiproliferative activity against human HeLa cells incubated for 48 hrs by MTT assay; type: functional, cell-based
[3] = system: NCI-H23; assay: Antiproliferative activity against human NCI-H23 cells incubated for 48 hrs by MTT assay; type: functional, cell-based; details: NCI-H23, 48 h
[4] = system: HepG2; assay: Antiproliferative activity against human HepG2 cells incubated for 48 hrs by MTT assay; type: functional, cell-based; details: HepG2, 48 h
[5] = system: MCF7; assay: Antiproliferative activity against human MCF7 cells incubated for 48 hrs by MTT assay; type: functional, cell-based; details: MCF7, 48 h
[6] = system: B16-F10; assay: Antiproliferative activity against mouse B16-F10 cells incubated for 48 hrs by MTT assay; type: functional, cell-based; details: B16-F10, 48 h
[7] = system: B16-F10; assay: Antitumor activity against mouse B16-F10 cells xenografted in C57 mouse at 7 mg/kg, ip qd for 12 days relative to control; type: functional; details: B16-F10, 288 h, time 12 day, read-out: TGI
[8] = Toxicity in C57 mouse xenografted with mouse B16-F10 cells assessed as body weight change at 7 mg/kg, ip qd for 12 days; type: organism-based; details: in vivo, 288 h, time 12 day
[9] = system: B16-F10; assay: Antitumor activity against mouse B16-F10 cells xenografted in C57 mouse assessed as suppression of tumor growth at 7 mg/kg, ip qd for 12 days; type: functional, organism-based; details: time 12.0 day

Row | SMILES | IC50 [1] [nM] | IC50 [2] [nM] | IC50 [3] [nM] | IC50 [4] [nM] | IC50 [5] [nM] | IC50 [6] [nM] | inhibition in vivo at 7 mg/kg [7] [%] | Activity [8] | Activity [9]
1 | COc1cc(N(C)c2nc(C)nc3ccsc23)cc(OC)c1OC | > 100 | > 100 | > 100 | > 100 | > 100 | > 100 | – | – | –
2 | Cc1nc(N(C)c2ccc(C(F)(F)F)cc2)c2sccc2n1 | > 100 | > 100 | > 100 | > 100 | > 100 | > 100 | – | – | –
3 | COc1cc2c(c(OC)c1OC)-c1ccc(OC)c(=O)cc1[C@@H](NC(C)=O)CC2 [COLCHICINE] | 9.37 | 9.35 | 3.1 | 5 | – | 18.8 | – | – | –
4 | CN(c1ccc2c(ccn2C)c1)c1ncnc2ccsc12 | > 100 | > 100 | > 100 | > 100 | > 100 | > 100 | – | – | –
5 | Cc1nc(N(C)c2cccc3ccccc23)c2sccc2n1 | > 100 | > 100 | > 100 | > 100 | > 100 | > 100 | – | – | –
6 | Cc1nc(N(C)c2cc(Cl)cc(Cl)c2)c2sccc2n1 | > 100 | > 100 | > 100 | > 100 | > 100 | > 100 | – | – | –
7 | Cc1nc(N(C)c2cccc(C(F)(F)F)c2)c2sccc2n1 | > 100 | > 100 | > 100 | > 100 | > 100 | > 100 | – | – | –
8 | Cc1nc(N(C)c2cccc(OC(F)(F)F)c2)c2sccc2n1 | > 100 | > 100 | > 100 | > 100 | > 100 | > 100 | – | – | –
9 | Cc1ccc(N(C)c2nc(C)nc3ccsc23)cc1 | > 100 | > 100 | > 100 | > 100 | > 100 | > 100 | – | – | –
10 | COc1ccc(N(C)c2nc(C)nc3ccsc23)cc1OC | > 100 | > 100 | > 100 | > 100 | > 100 | > 100 | – | – | –
11 | Cc1c(COc2cc(OCc3cccc(C#N)c3)c(CNC(C)(C)C(=O)O)cc2Cl)cccc1-c1ccccc1 | – | – | – | – | – | – | 43.9 | Non-Toxic | Active
12 | Cc1nc(N(C)c2ccc(Cl)c(Cl)c2)c2sccc2n1 | > 100 | > 100 | > 100 | > 100 | > 100 | > 100 | – | – | –
13 | COc1cc(OC)cc(N(C)c2nc(C)nc3ccsc23)c1 | > 100 | > 100 | > 100 | > 100 | > 100 | > 100 | – | – | –
14 | Cc1cccc(N(C)c2nc(C)nc3ccsc23)c1 | > 100 | > 100 | > 100 | > 100 | > 100 | > 100 | – | – | –
15 | COc1ccccc1N(C)c1nc(C)nc2ccsc12 | > 100 | > 100 | > 100 | > 100 | > 100 | > 100 | – | – | –

Second part, led by results:

Row | IC50 [1] [nM] | IC50 [2] [nM] | IC50 [3] [nM] | IC50 [4] [nM] | IC50 [5] [nM] | IC50 [6] [nM] | SMILES | inhibition in vivo at 7 mg/kg [7] [%] | Activity [8] | Activity [9]
16 | > 100 | > 100 | > 100 | > 100 | > 100 | > 100 | Cc1nc(N(C)c2ccc(C(C)C)cc2)c2sccc2n1 | – | – | –
17 | > 100 | > 100 | > 100 | > 100 | > 100 | > 100 | COc1cccc(N(C)c2nc(C)nc3ccsc23)c1 | – | – | –
18 | 3.12 | 18.8 | 9.37 | 18.8 | 1.4 | 30 | COc1ccc(N(C)c2nc(C)nc3ccsc23)cc1 | – | – | –
19 | > 100 | > 100 | > 100 | > 100 | > 100 | > 100 | Cc1nc(N(C)c2ccccc2C)c2sccc2n1 | – | – | –
20 | > 100 | > 100 | > 100 | > 100 | > 100 | > 100 | Cc1nc(N(C)c2ccc(OC(C)C)cc2)c2sccc2n1 | – | – | –
21 | > 100 | > 100 | > 100 | > 100 | > 100 | > 100 | COc1ccc(N(C)c2nc(C)nc3ccsc23)cc1C(F)(F)F | – | – | –
22 | 0.58 | 9 | 18.8 | 18 | 20 | 15.6 | Cc1nc(N(C)c2ccc3ccccc3c2)c2sccc2n1 | – | – | –
23 | 1.56 | 20 | 18.8 | 18.5 | 4.68 | 6.25 | COc1ccc(N(C)c2nc(C)nc3ccsc23)cc1[N+](=O)[O-] | – | – | –
